This assay has as its target Potassium voltage-gated channel subfamily KQT member 4 (Homo sapiens) (UniProt P56696). As to the kind of experiment: human KCNQ4 channel current potentiation, dose response, selectivity assay for KCNQ2 activator project, automated patch clamp, CHO cells (AID 493043). In general terms: In patch-clamp work, channel activity is measured electrically.

Sequence of Potassium voltage-gated channel subfamily KQT member 4 (Homo sapiens) (P56696 whole entry, looked up): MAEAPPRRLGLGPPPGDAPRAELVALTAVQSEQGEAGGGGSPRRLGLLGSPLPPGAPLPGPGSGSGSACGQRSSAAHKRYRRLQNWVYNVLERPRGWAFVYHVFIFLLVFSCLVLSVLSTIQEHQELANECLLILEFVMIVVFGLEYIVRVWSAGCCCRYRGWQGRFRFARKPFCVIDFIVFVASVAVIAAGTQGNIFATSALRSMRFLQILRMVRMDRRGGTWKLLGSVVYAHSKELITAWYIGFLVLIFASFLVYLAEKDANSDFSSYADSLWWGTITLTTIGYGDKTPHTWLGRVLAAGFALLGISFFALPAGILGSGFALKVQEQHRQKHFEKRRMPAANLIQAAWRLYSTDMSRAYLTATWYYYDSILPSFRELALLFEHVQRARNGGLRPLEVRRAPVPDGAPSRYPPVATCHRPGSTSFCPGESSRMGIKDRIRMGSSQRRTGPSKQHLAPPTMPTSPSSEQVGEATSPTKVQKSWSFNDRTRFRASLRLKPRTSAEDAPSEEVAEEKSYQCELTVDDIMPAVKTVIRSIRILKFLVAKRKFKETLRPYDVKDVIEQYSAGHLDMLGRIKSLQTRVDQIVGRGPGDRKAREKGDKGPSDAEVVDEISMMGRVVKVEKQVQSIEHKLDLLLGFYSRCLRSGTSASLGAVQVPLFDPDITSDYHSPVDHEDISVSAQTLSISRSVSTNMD

In general, EC50 refers to the midpoint of the concentration-response curve. Take `Cc1cc(C)c(NC(=O)C2CC3CCC2C3)c(C)c1` (stereo unspecified): the EC50 is 513 nM.

The record behind these values is PubChem BioAssay AID493043 (Johns Hopkins Ion Channel Center, 2011).
